According to US20230080241A1 (priority 2020, published 2023):
Read-outs that look alike come from different tables or passages of the source.

Experiments:
[1] = system: Plasmodium falciparum; assay: in vitro asexual blood stage growth of Plasmodium falciparum; type: cell-based; details: for IC50: Plasmodium falciparum, P. falciparum in vitro
Method: Presented herein is experiment data representing tranexamic acid as an antimalarial druggable scaffold. The results shown below show the efficacy of tranexamic acid against both Plasmodium falciparum and P. berghei across the parasite lifecycle. The data herein illustrates the ability of tranexamic acid to act as an antimicrobial agent, and more particularly, in some embodiments, as an antimalarial drug. Experiments were conducted to test, in vitro, the ability of tranexamic acid to impair the asexual intraerythrocytic development of P. falciparum. All of the symptoms associated with malaria infection are caused by the asexual blood stages, which makes them a logical therapeutic target.
Up to six different concentrations of tranexamic acid plus a negative control (carrier with no drug) were tested in a highly synchronous culture. A two-fold serial dilution starting at 200 mM was prepared, replenishing the drug daily for four consecutive days (i.e. two complete intraerythrocytic cycles).
FIG. 1 illustrates in vitro asexual blood stage growth at day 1 after 1 dose of tranexamic acid (TXA). Values are the mean of three technical replicates, and error bars represent the standard deviation. FIG. 2 illustrates in vitro asexual blood stage growth at day 3 after 3 doses of tranexamic acid (TXA). Values are the mean of three technical replicates, and error bars represent the standard deviation. FIG. 3 illustrates in vitro IC50 of tranexamic acid after three daily doses. Values are the mean of three technical replicates, relative to the minimal effect (i. e. the parasitemia from the samples with no drug). Error bars represent the standard deviation. Morphological defective parasites could be observed at day 4 in the two lowest tested concentrations (i.e. 12.5 and 6.25 mM). Healthy segmented schizonts were selected from the sample mock-treated in the absence of tranexamic acid (0 mM).

[2] = system: Plasmodium berghei ANKA mCherry; type: in vivo, mice (outbred CD1); details: mice
Method: In addition to in vitro experiments to test the ability of tranexamic acid to impair the asexual intraerythrocytic development of P. falciparum, experiments were conducted to test, in vivo, the ability of tranexamic acid to cure asynchronized blood stage infections of Plasmodium berghei ANKA mCherry in mice. P. berghei is a species in the genus Plasmodium subgenus Vinckeia and is a protozoan parasite that causes malaria in rodents. Due to its ability to infect rodents and relative ease of genetic engineering, P. berghei is a popular model organism for the study of human malaria, and was thus used in the present disclosure.
Recipient mice (n=5/group; 3 groups) received blood from a donor mouse containing asynchronous asexual blood stages of P. berguei. Parasitemia was monitored and when it reached at least 5% mice were treated intravenously (i.v.) with 20, 10, or 0 mg of tranexamic acid in a phosphate-buffered saline (PBS) carrier. Blood smears from tail snips were prepared every 24 hours, or until the humane endpoint criteria was reached, to monitor parasitemia.
FIG. 4 illustrates in vivo asexual blood stage growth of P. berghei after the injection of the PBS carrier. […]

## NC[C@H]1CC[C@H](C(=O)O)CC1 [tranexamic acid]
[1]; 100 mM, after 48 hours, two doses
  clearance of infection: cleared the infection
[1]; 200 mM, after 24 hours, single dose, FIG. 1
  clearance of infection: completely cleared the infection
[1]; 12.5 and 6.25 mM, day 4, some parasites arrested at schizont-like morphology
  parasite morphology: morphological defects could be observed
[1]; 72 h, after 3 daily doses, FIG. 3, read-out: IC50 at day 3
  IC50: 11.4 mM
[1]; drug replenished on a daily basis, read-out: in vitro IC50
  IC50: 11.4 mM
[1]; some of the tested concentrations, rings and early trophozoites on day 3 (72 hours after first dose), FIG. 2
  growth delay: a growth delay was observed
[2]; 10 mg injection i.v.
  equivalent in vitro concentration based on estimated volemia: approximately 37 mM
[2]; 20 mg injection i.v.
  equivalent in vitro concentration based on estimated volemia: ~75 mM
